The test system of assay [1] is TGase II. The assay is described as follows: TGase II activity in cultured MCF-7 cells. The assay is classed as cell-based, human. On the procedure:
MCF-7 cells were seeded at a density of 1.5 x 10^5 cells/ml medium (500ml DMEM + 56.2ml FBS + 5.6m1 AB/AM) in 6cm diameter dishes for 24 hours and treated with either DMSO, RA, or 13-cis RA at 10^-6 M and grown to confluence (about 72 hours). Cells were harvested and Transglutaminase II activity was measured as described below. Nebulizer solution, inhalation procedures, details of animal housing are described below.
Cultured cells were placed in 100 µl scraping buffer [A: 2800µl (400µl 0.5M Na-Phosphate, 500µl 0.01M EDTA, 100µl 1M DTT , 9ml PBS total 10ml) + B:700µl (10µl 20mg/ml PMSF 790µl PBS total 800µl)] for each dish. Cells were broken by a sonicator and kept in ice until used. TGase II assay was conducted as described below and previously {8217}.
Enzyme assay mixtures were prepared by adding 80µl of SUBSTRATE mixture (322.8µl H2O, 120µl 0.5M NaBorate, 60µl 0.01M EDTA, 60µl 0.1M CaCl2, 6µl 1M DTT, 240µl dimethyl casein, 30µl Triton X-100, 1.2µl [^3H]-Putrescine, 120µl Putrescine) to 20µl sample, 20µl scraping buffer for blank control , 20 µl (18µl scraping buffer + 2µl TGase II) for positive control. Samples were mixed in 15ml tubes, the tubes were shaken before putting them into a 28°C water bath for 30 minutes. Reactions were slowed down in an ice bath. 80µl of the incubation mixture was adsorbed onto paper disks. These were immediately dropped into cold 10% TCA (0.1% Putrescine) and washed with agitation for 7 minutes, followed by 2 additional washes with 5% TCA (0.05% putrescine) for 5~7 minutes, and once more with cold (-20°C) 95% ethanol for 5 minutes. Paper disks were dried and placed into 5ml Aquasol, and counted in a Liquid Scintillation Counter. Protein concentration determination was conducted by the Bradford method.

Assay [2] relates to TGase II. The assay is described as follows: TGase II assay of SENCAR mouse liver tissue after dietary RA. The format is in vivo. Conditions: 75 Weeks. How it is done:
The supernatant was removed and kept in ice until used.
Reactions were slowed down in an ice bath. […] Protein concentration determination was conducted by the Bradford method.

The next assay deals with RARα. The assay is described as follows: Western blot of SENCAR mouse liver after dietary RA. Conditions: for RARα densitometric analysis: male SENCAR mouse liver. The assay is classed as in vivo. How it is done: (§1) The experimental groups were divided in two groups of five mice (Table 5) each including a low and high dose group that were fed either a physiological RA diet of 3µg/g diet) or a pharmacological RA diet (30µg/g diet) for 75 weeks, respectively.
(§2) SENCAR mice (30) were divided into six experimental groups. The experimental groups were as follows (Table 7): groups 1, 3 and 5 (5 mice each) were fed a physiological RA diet (3µg/g diet) for 1, 14 and 28 days; groups 2, 4 and 6 (each of 5 mice) were fed a pharmacological RA diet (30µg/g diet) for 1, 14 and 28 days.
(§3) Polyclonal rabbit anti-mouse antibodies against RAR, and (SANTA CRUZ Biotechnology Inc., San Francisco, CA) were used. BM Chemiluminescense Western Blotting Kit (Mouse/Rabbit) was used (Boehringer Mannheim Corporation, Indianapolis) for the Westerns.
(§4) Tissues were collected, frozen in dry ice and kept at -70°C until used. 500mg aliquots were diced in small pieces and homogenized in 300µl of cold PBS, using the hand held homogenizer for 2~3 minutes. Sample and washes were centrifuged at 5000xg for 20 minutes. The pellet was suspended in 400 µl of ice-cold Buffer A [2µl 0.5M EDTA, 10µl 100mM EGTA, 50µl 100mM PMSF, 10µl 1M DTT, 10ml (10mM HEPES pH 7.9 + 10mM KCl)], and left at ice temperature for 15 minutes. 25 µl of 10% solution of NP-40 was added and samples were mixed in a vortex vigorously for 10 seconds. Samples were centrifuged at 14,000xg for 1 minute at 4°C and the pellet treated once more in this fashion (resuspended etc.). The supernatant was removed and 100µl of ice-cold Buffer C [4µl 0.5M EDTA, 20µl 100mM EGTA, 20µl 100mM PMSF, 2µl 1 M DTT, 2ml (20mM HEPES pH 7.9 + 0.4M NaCl)] was added. Pellets were resuspended by tapping gently on the bottom of the Eppendorf tubes. Samples were rocked vigorously in a bucket of ice on an orbital shaker for 30 minutes. Samples were centrifuged at 14,000 xg for 5 minutes at 4°C. Protein determination of supernatant was conducted by the Bradford method.
(§5) Samples were prepared by adding one part of the Sample Buffer to one part of the sample and mixing well. Samples were heated at 95°C for 5 minutes to induce denaturation. 5µl of Rainbow Standard and 5µl ofBiotinylated Molecular Marker were added to parallel wells. 20µg protein per sample was loaded in each lane. Electrophoresis was performed with voltage set at 125V for about 1 ~ 1.5 hours. Gel transfer was executed at 25V for 2 hours. The membrane was stained in Ponceau S. for 5 minutes and destained with one wash of 5% acetic acid. The membrane was then washed in TBS solution until the staining disappeared. Membranes were incubated in 1ml blocking solution and 9ml TBS for 60 minutes. Membranes were incubated in 1ml of blocking solution and 19ml TBS along with 20µl primary antibody solution overnight (dilution of 1 : 1000). Membranes were washed in PBS-Tween 20, 3 times for 10 minutes each. They were finally incubated in 1ml blocking solution and 19ml TBS along with 20µl Antibiotin HRP - Linked Antibody and 2µl of secondary (rabbit anti-mouse antibody) (1 : 10,000 dilution) for 30 minutes. The membranes were washed in PBS - Tween 20, 4 times for 10 minutes each. The film was exposed for development and detection.
A general note: A western blot detects proteins with antibodies after separation by electrophoresis.

In a further assay the test system is RARβ. The description is as above. The format is in vivo. To be noted: for RARβ densitometric analysis: male SENCAR mouse liver. On the procedure: as §1, §2, §3, §4, §5
The subject of another assay is RARγ. The assay is described as above. The format is in vivo. To be noted: for RARγ densitometric analysis: male SENCAR mouse liver. On the procedure: as §1, §2, §3, §4, §5
A further assay deals with lung tissue RARs. Briefly: Western blot of SENCAR mouse lung tissue after dietary RA. The format is in vivo. How it is done: as §1, §2, §3
Tissues were collected, frozen in dry ice and kept at -70°C until used. 500mg aliquots were diced in small pieces and homogenized in 300µl of cold PBS, using the hand held homogenizer for 2~3 minutes. Sample and washes were centrifuged at 5000xg for 20 minutes. The pellet was suspended in 400 µl of ice-cold Buffer A [2µl 0.5M EDTA, 10µl 100mM EGTA, 50µl 100mM PMSF, 10µl 1M DTT, 10ml (10mM HEPES pH 7.9 + 10mM KCl)], and left at ice temperature for 15 minutes. 25 µl of 10% solution of NP-40 was added and samples were mixed in a vortex vigorously for 10 seconds. […]

Setting [3] is: 30µg/g diet versus 3µg/g diet, 75 weeks.
Where [4] appears, read: pharmacological dietary RA over physiological RA (3µg/g diet), day 1.

“Also recorded” adds a separate entry of the source.

For `CC1=C(/C=C/C(C)=C/C=C/C(C)=C/C(=O)O)C(C)(C)CCC1` [RA, all-trans-retinoic acid], the fold induction at 1 µM in the assay with TGase II [1] (Homo sapiens, MCF7, 72 h, read-out: stimulating TGase II activity) stood at 7.4. Besides, the “TGase II Activity” value in the assay with TGase II [1] (MCF-7 cells, 10^-6 M, 72 hours, DMSO control 0.183) is given as 1.359 +/- 0.098 picomoles/µg protein/30 minutes. Besides, the “TGase II assay DPM/µg protein” value in the assay on TGase II [2] (pharmacological RA diet 30µg/g) was 49,260 DPM/µg protein; in the assay on TGase II [2] (physiological RA diet 3µg/g), 9,820 DPM/µg protein. In addition, in the assay on RARα (setting [3]), the “upregulated liver RAR (α)” value is 21.8 fold. For the same compound, the RARα densitometric analysis in the assay on RARα (3µg/g diet, 75 weeks) is reported as 12.1 +/- 7.2 IDV; with RARα (30µg/g diet, 75 weeks), 264 +/- 21.3 IDV. Further, in the assay with RARα (setting [4]), the “stimulated liver RAR (α)” value is recorded as 2 fold. Also, in the assay with RARβ (setting [3]), the “upregulated liver RAR (β)” value turned out to be 13.5 fold. Also, the RARβ densitometric analysis in the assay with RARβ (3µg/g diet, 75 weeks) is reported as 18.9 +/- 7.4 IDV; in the assay with RARβ (30µg/g diet, 75 weeks), 254 +/- 31.9 IDV. For the same compound, the “stimulated liver RAR (β)” value in the assay on RARβ (setting [4]) was 4 fold. For the same compound, the “upregulated liver RAR (γ)” value with RARγ (setting [3]) was 12.5 fold. Besides, the RARγ densitometric analysis is on record as 23.1 +/- 6.7 IDV in the assay on RARγ (3pg/g diet as printed, 75 weeks) and 288 +/- 17.4 IDV in the assay on RARγ (30µg/g diet, 75 weeks). In the assay with RARγ (setting [4]), the “stimulated liver RAR (γ)” value turned out to be 2.1 fold. In addition, in the assay with lung tissue RARs (long term feeding, 30µg/g diet), the “induction of lung tissue RARs” value is “failed to induce RARs”. In addition, the “effect on lung tissue RARs” value in the assay with lung tissue RARs (time course 1, 14 and 28 days, 30µg/g versus 3µg/g diet, not shown) is given as “no effect; also recorded: without any measurable effect on lung tissue RARs”.

The values are drawn from patent EP1263420B1 (priority 2000, dated 2001).
